Target: T1, KCC2 (Homo sapiens, UniProt Q9H2X9)
T1 sequence (Q9H2X9 1-1116 isoform Q9H2X9-2): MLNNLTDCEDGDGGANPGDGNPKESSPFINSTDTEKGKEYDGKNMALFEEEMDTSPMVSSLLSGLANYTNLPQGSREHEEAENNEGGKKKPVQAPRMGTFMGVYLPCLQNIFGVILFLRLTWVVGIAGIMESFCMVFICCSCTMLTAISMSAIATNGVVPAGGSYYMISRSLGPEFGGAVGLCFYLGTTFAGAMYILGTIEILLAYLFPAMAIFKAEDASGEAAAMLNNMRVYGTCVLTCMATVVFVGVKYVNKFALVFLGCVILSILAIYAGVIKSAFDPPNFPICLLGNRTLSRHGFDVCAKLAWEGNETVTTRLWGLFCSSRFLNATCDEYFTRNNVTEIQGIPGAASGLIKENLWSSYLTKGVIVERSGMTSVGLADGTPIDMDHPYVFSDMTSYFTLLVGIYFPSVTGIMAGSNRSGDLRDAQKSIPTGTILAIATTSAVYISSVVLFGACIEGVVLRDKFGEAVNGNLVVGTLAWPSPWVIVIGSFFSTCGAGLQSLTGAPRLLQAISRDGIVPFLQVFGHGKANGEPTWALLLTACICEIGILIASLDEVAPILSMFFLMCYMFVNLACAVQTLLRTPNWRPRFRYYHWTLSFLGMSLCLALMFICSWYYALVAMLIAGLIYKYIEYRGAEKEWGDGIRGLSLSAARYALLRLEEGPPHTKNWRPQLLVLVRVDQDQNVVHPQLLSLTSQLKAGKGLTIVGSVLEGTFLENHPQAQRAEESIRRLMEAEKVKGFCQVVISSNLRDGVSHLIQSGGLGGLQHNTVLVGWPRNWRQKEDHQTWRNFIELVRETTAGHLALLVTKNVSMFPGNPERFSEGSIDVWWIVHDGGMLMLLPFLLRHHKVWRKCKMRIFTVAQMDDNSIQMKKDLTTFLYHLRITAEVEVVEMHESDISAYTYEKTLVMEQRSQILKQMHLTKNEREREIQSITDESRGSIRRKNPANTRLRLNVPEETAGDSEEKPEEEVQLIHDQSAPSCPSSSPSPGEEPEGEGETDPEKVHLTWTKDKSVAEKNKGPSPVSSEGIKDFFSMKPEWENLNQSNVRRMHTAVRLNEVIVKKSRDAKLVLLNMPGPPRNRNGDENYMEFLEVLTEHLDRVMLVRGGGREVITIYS
Test: Tl influx FLIPR assay in HEK-293 cells expressing KCC2
Type: cell-based

EC50: 0.261 ± 0.0222 µM
Substance: OV350 [compound 350]

Reference: PMC10040380 (Cell Reports Medicine, 2023)
